Test results as given in patent US6841366B1, “Biotin biosynthesis in bacillus subtilis” (DSM IP Assets B.V., priority 1993, dated 2005).

Legend:
[1] = system: B. subtilis birA/azl^r strains; assay: Screen of parents and Trp+ transductants for homobiotin resistance; assay type: cell-based; parameters: key to Homobiotin resistant/sensitive: R: resistant; S: sensitive
Description: The birA mutation from either HB3 or α-DB16 was introduced into either PA3 or PA6 by a two step transduction process. First, PA3 and PA6 were made Trp^− by transduction with trpE::Tn917lac (Perkins and Youngman, (Proc. Nat'l Acad. Sci USA 83:140-144 (1986)) selecting for erythromycin resistance. The birA mutations were transduced from HB3 or α-DB16, selecting for Trp^+. Parents and Trp^+ transductants were screened for homobiotin resistance and azelaic acid resistance. PA6 was homobiotin sensitive, so double mutants could be identified among Trp^+ transductants by screening for homobiotin resistant colonies. Only about 60% of Trp^+ transductants were also homobiotin resistant (this may be due to Tn917 distortion of the map distance between birA and trpE normally 90% linkage by transduction). PA3 was resistant to homobiotin, so direct identification of double mutants was not possible. However, 60% of the transductants were double mutants as judged by increased biotin secretion, see below.

B. subtilis PY79 = assay: Crystal of biotin analog on plates, growth inhibition; assay type: cell-based; conditions: for Zones of killing around crystal: PY79, EMS1, EMS2 on TBAB, BIOS or MIN plates, after 24 h; for Growth inhibition around crystal, zones of clearing: EMS-mutagenized PY79, TBAB plates, overnight at 37° C.
Description: Biotin analogs were used to select for strains that were deregulated for biotin production. Among the mutations sought were those in a potential homolog of the E. coli birA gene. However, it is expected that selection for resistance to biotin analogs can also yield strains with mutations in the operator site(s) of birA, or in genes encoding functions responsible for the transport of the analogs into the cell. Analog-resistant mutants can also contain a gene or genes that encode enzymes resistant to inhibitors including, but not limited to, feedback inhibitors. Several biotin analogs (homobiotin, α-dehydrobiotin, and 5(2-thienyl)pentanoic acid) were obtained from Nippon Roche KK (Kanagsua, Japan). Mutagenized cells of B. subtilis were plated on TBAB (Difco Tryptose Blood Agar Base, cat. no. 0232-01-9) plates containing a crystal of each biotin analog.
An additional 27 mutants were selected subsequently in similar plate screenings for their resistance to the analogs homobiotin (HB) and α-dehydrobiotin (α-DB). For this latter selection, B. subtilis PY79 cultures were subjected to mutagenesis with EMS in two independent experiments. […] Overnight cultures of PY79, EMS1, and EMS2 grown in rich medium were plated on TBAB (rich), BIOS (biotin free) or MIN (glucose-minimal) plates and a crystal of homobiotin or α-dehydrobiotin was placed on each of the plates. […] Individual colonies were picked from homobiotin plates or α-dehydrobiotin plates and restreaked on BIOS plates containing α-dehydrobiotin or homobiotin.

PY79 bioI::cat = assay: Growth of bioI::cat mutants on biotin-free medium with supplements; assay type: cell-based, B. subtilis; conditions: biotin 33 μg/ml
[2] = system: bioW-lacZ translational fusion; assay: bioW-lacZ translational fusion integrated at the bio locus, β-galactosidase liquid ONPG assay; assay type: cell-based, B. subtilis
Description: A translational lacZ fusion was constructed to confirm the activity and regulation of the putative promoter and regulatory region, and to assess the relative level of expression of the B. subtilis biotin operon in a variety of contexts. This was accomplished by inserting a 3.1 kb BamHI-BglII fragment containing a promoter-less lacZ coding region into the BamHI site of pBIO350, to give pBIO397 and pBIO398.
To test the bioW-lacZ fusion for biotin-regulated expression in B. subtilis, Bio^+ partial diploids were constructed. The cat cassette was cloned into pBIO397 using the single SmaI site located within the polylinker region downstream from the lacZ gene. One recombinant plasmid, pBIO397cat, with the cat gene oriented in the same direction as the translational fusion, was used to generate Bio^+ partial diploids. Competent cells of the prototrophic B. subtilis strain PY79 were transformed with pBIO397cat plasmid DNA selecting for Cm^r. Transformants should only arise by recombination into the chromosome. This leaves an intact copy of the bio operon, allowing activity of the lac fusion to be assessed in the absence of added biotin.
The promoter of the BamHI to PstI fragment cloned in pBIO350 is regulated by biotin. Two Cm^r Bio^+ partial diploids containing the bioW-lacZ fusion were tested for β-galactosidase activity in biotin-free medium in the presence or absence of biotin (100 μg/liter). In liquid ONPG assays, both strains were regulated specifically by biotin. The level of β-galactosidase was repressed in the presence of biotin and induced in its absence to 24 to 85-fold higher specific activity (Table 3). This strain with the bioW::lacZ fusion integrated at the bio operon has also been used to isolate new biotin analog-resistant mutants (see below) on X-gal indicator plates.

[3] = system: B. subtilis PY79 and azelaic acid resistant mutants; assay: Growth inhibition by azelaic acid, minimal agar; assay type: cell-based; conditions: addition of 1 μg/l biotin
Description: Azelaic acid, a straight chain C9 dicarboxylic acid, is a homolog of pimelic acid and is thought to be an intermediate in the conversion of oleic acid to pimelic acid (see Ohsugi and Inoue (1981) Agric. Biol. Chem. 45: 2355-2356, hereby incorporated by reference).
Seven spontaneous mutants that outgrew the background of PY79 on 2 g/l Azelaic acid were isolated. The resistance to azelaic acid appeared to be a stable trait in all but one case (see below). The seven mutants were provisionally named PA1-PA7 (PY79 Azelaic acid resistant). PA1 through PA7 were grown in test tubes in VY medium, and biotin production was assayed using E. coli indicator strains (Table 15). The mutants fell into two classes, those that yielded more biotin than PY79 (PA5, PA6) and those that were similar to PY79 (PA1, 2, 3, and 7). PA4 appeared to be either unstable or not a true mutant and was dropped from further study. Applicants also noticed that the mutants fell into two classes with respect to colony size on minimal agar with 2 g/l azelaic acid, and that these two classes corresponded to the two classes of biotin producers (Table 11). The mutants with the most biotin in the supernatant (PA5 and PA6) gave small colonies, while the biotin non-secreters, PA1, 2, 3, and 7, gave large colonies. PA1 and PA3 secreted a compound that cross-fed PY79 (i.e., reversed the azelaic acid inhibition of PY79) on minimal plates containing 2 g/l azelaic acid.

SPβ::bioW-lacZ = assay: SPβ-borne single-copy bioW-lacZ translational fusion, β-galactosidase assay; assay type: cell-based, B. subtilis
Procedure: Other strains, in addition to the lacZ fusion strain of Example IVA, can be constructed for deciphering biotin regulatory mechanisms. For example, Applicants recognized that insertion of the plasmid-borne bioW-lacZ fusion into the chromosome causes technical problems because the integrated plasmid amplifies in copy number. Thus the expression of the bioW-lacZ fusion at single copy-number and at a site distinct from the bio operon was tested by introducing the fusion into a modified SPβ specialized transducing phage (see, e.g., Zuber et al., J. Bacteriol. 169:2223-2230, 1987, hereby incorporated by reference).
Two isolates of PY79 (SPβ::bioW-lacZ) and BI421 (SPβ::bioW-lacZ) were assayed for β-galactosidase activity as described above.
Biotin regulation was also examined in two independently isolated biotin analog-resistant mutants. HB3 contains a spontaneous birA mutation and α-DB9 contains an α-dehydrobiotin resistant mutation unlinked to either bio or birA. These strains were transduced, grown, and assayed as described above, except that α-DB9 (SPβ::bioW-lacZ) was assayed during mid-exponential growth.

O=C(O)CCCCC[C@@H]1SC[C@@H]2NC(=O)N[C@@H]21 [Homobiotin, homobiotin]
Homobiotin resistant/sensitive ([1]; parent PA3, birA donor HB3, isolate 1): R | Homobiotin resistant/sensitive ([1]; parent PA3, birA donor HB3, isolate 2): R | Homobiotin resistant/sensitive ([1]; parent PA3, birA donor α-DB16, isolate 1): R | Homobiotin resistant/sensitive ([1]; parent PA6, birA donor HB3, isolate 2): R | Homobiotin resistant/sensitive ([1]; parent PA6, birA donor HB3, isolate 6): R | Homobiotin resistant/sensitive ([1]; parent PA6, birA donor α-DB16, isolate 8): R | Homobiotin resistant/sensitive ([1]; parent PA6, birA donor α-DB16, isolate 14): R | Homobiotin resistant/sensitive ([1]; strain HB3): R | Homobiotin resistance of PA3 ([1]; strain PA3): resistant | Homobiotin resistant/sensitive ([1]; strain PA3): R | Homobiotin resistant/sensitive ([1]; strain PA6): S | Homobiotin sensitivity of PA6 ([1]; strain PA6): sensitive | Homobiotin resistant/sensitive ([1]; strain PY79): S | Homobiotin resistant/sensitive ([1]; strain α-DB16): R | Zones of killing around crystal (B. subtilis PY79): zones of killing were observed

O=C(O)CCCC[C@@H]1SC[C@@H]2NC(=O)N[C@@H]21 [Biotin]
Growth of bioI::cat insertion colonies (PY79 bioI::cat): grew to wild-type levels | Fold Increase of β-galactosidase activity, −Biotin over +Biotin (100 μg/l) ([2]; PY79(bioW-lacZ)12A, Late Log): 24 Fold | β-galactosidase activity +Biotin (100 μg/l) ([2]; PY79(bioW-lacZ)12A, Late Log (OD600 0.7-0.8)): 0.47 Miller Units | Fold Increase of β-galactosidase activity, −Biotin over +Biotin (100 μg/l) ([2]; PY79(bioW-lacZ)12A, Late Stationary): 53 Fold | β-galactosidase activity +Biotin (100 μg/l) ([2]; PY79(bioW-lacZ)12A, Late Stationary (OD600 1.4-1.6)): 0.13 Miller Units | Fold Increase of β-galactosidase activity, −Biotin over +Biotin (100 μg/l) ([2]; PY79(bioW-lacZ)12A, Stationary): 65 Fold | β-galactosidase activity +Biotin (100 μg/l) ([2]; PY79(bioW-lacZ)12A, Stationary (OD600 1.1-1.4)): 0.17 Miller Units | Fold Increase of β-galactosidase activity, −Biotin over +Biotin (100 μg/l) ([2]; PY79(bioW-lacZ)14A, Late Log): 33 Fold | β-galactosidase activity +Biotin (100 μg/l) ([2]; PY79(bioW-lacZ)14A, Late Log (OD600 0.7--0.8)): 0.64 Miller Units | Fold Increase of β-galactosidase activity, −Biotin over +Biotin (100 μg/l) ([2]; PY79(bioW-lacZ)14A, Late Stationary): 85 Fold | β-galactosidase activity +Biotin (100 μg/l) ([2]; PY79(bioW-lacZ)14A, Late Stationary (OD600 1.213-1.320)): 0.10 Miller Units | Fold Increase of β-galactosidase activity, −Biotin over +Biotin (100 μg/l) ([2]; PY79(bioW-lacZ)14A, Stationary): 82 Fold | β-galactosidase activity +Biotin (100 μg/l) ([2]; PY79(bioW-lacZ)14A, Stationary (OD600 1.1-1.4)): 0.15 Miller Units | Reversal of azelaic acid growth inhibition of wild-type B. subtilis [3]: reversed | Fold Increase of β-galactosidase activity, −Biotin over +Biotin (100 μg/l) (SPβ::bioW-lacZ; BI421 (SPβ::bioW-lacZ)/#1 (birA)): 1.5 Fold | β-galactosidase activity +Biotin (100 μg/l) (SPβ::bioW-lacZ; BI421 (SPβ::bioW-lacZ)/#1 (birA), OD600 1.00-0.936): 0.67 Miller Units | Fold Increase of β-galactosidase activity, −Biotin over +Biotin (100 μg/l) (SPβ::bioW-lacZ; BI421 (SPβ::bioW-lacZ)/#3 (birA)): 0.9 Fold | β-galactosidase activity +Biotin (100 μg/l) (SPβ::bioW-lacZ; BI421 (SPβ::bioW-lacZ)/#3 (birA), OD600 1.07-0.92): 0.96 Miller Units | Fold Increase of β-galactosidase activity, −Biotin over +Biotin (100 μg/l) (SPβ::bioW-lacZ; HB3 (SPβ::bioW-lacZ)/#1 (birA)): 1.3 Fold | β-galactosidase activity +Biotin (100 μg/l) (SPβ::bioW-lacZ; HB3 (SPβ::bioW-lacZ)/#1 (birA), OD600 1.068-1.076): 0.24 Miller Units | Fold Increase of β-galactosidase activity, −Biotin over +Biotin (100 μg/l) (SPβ::bioW-lacZ; HB3 (SPβ::bioW-lacZ)/#3 (birA)): 0.8 Fold | β-galactosidase activity +Biotin (100 μg/l) (SPβ::bioW-lacZ; HB3 (SPβ::bioW-lacZ)/#3 (birA), OD600 1.213-1.320): 0.18 Miller Units | β-galactosidase repressed in the presence of biotin, induced in the absence of biotin (SPβ::bioW-lacZ; PY79 (SPβ::bioW-lacZ)): 9-15 fold | Fold Increase of β-galactosidase activity, −Biotin over +Biotin (100 μg/l) (SPβ::bioW-lacZ; PY79 (SPβ::bioW-lacZ)/#1): 15 Fold | β-galactosidase activity +Biotin (100 μg/l) (SPβ::bioW-lacZ; PY79 (SPβ::bioW-lacZ)/#1, OD600 1.04-1.08): 0.04 Miller Units | Fold Increase of β-galactosidase activity, −Biotin over +Biotin (100 μg/l) (SPβ::bioW-lacZ; PY79 (SPβ::bioW-lacZ)/#3): 9 Fold | β-galactosidase activity +Biotin (100 μg/l) (SPβ::bioW-lacZ; PY79 (SPβ::bioW-lacZ)/#3, OD600 0.988-0.960): 0.06 Miller Units | Fold Increase of β-galactosidase activity, −Biotin over +Biotin (100 μg/l) (SPβ::bioW-lacZ; α-D89 (SPβ::bioW-lacZ)/#1): 9.2 Fold | β-galactosidase activity +Biotin (100 μg/l) (SPβ::bioW-lacZ; α-D89 (SPβ::bioW-lacZ)/#1, OD600 0.892-0.528, one measurement): 0.18 Miller Units | Fold Increase of β-galactosidase activity, −Biotin over +Biotin (100 μg/l) (SPβ::bioW-lacZ; α-D89 (SPβ::bioW-lacZ)/#3): 12.3 Fold | β-galactosidase activity +Biotin (100 μg/l) (SPβ::bioW-lacZ; α-D89 (SPβ::bioW-lacZ)/#3, OD600 1.344-1.200): 0.11 Miller Units

O=C(O)/C=C/CCC1SCC2NC(=O)NC21 (stereo not drawn) [α-dehydrobiotin]
Growth inhibition around crystal, zones of clearing (B. subtilis PY79): inhibited the growth | Zones of killing around crystal (B. subtilis PY79): zones of killing were observed

O=C(O)CCCCc1cccs1 [5(2-thienyl) pentanoic acid, 5(2-thienyl)pentanoic acid]
Growth inhibition around crystal, zones of clearing (B. subtilis PY79): inhibited the growth
